Molecular target: Mcl-1 protein (UniProtKB Q07820) (Homo sapiens (Human), UniProt Q07820)
Assay: Inhibition of Mcl-1 by the fluorescence polarisation assay (Example A, Method A)
Format: binding
Details: fluorescence polarization assay
In short: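 Protein (5 nM) and fluorescein-tagged peptide tracer (1 nM) incubated with 11-point compound series for 2 h at room temperature in HEPES/NaCl/Tween 20 buffer, pH 7.4, 5% DMSO. Displacement read as decrease in polarisation; IC50 fitted by 4-parameter logistic, converted to Ki (cKi or eKi).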

Chain of Mcl-1 protein (Q07820 whole entry): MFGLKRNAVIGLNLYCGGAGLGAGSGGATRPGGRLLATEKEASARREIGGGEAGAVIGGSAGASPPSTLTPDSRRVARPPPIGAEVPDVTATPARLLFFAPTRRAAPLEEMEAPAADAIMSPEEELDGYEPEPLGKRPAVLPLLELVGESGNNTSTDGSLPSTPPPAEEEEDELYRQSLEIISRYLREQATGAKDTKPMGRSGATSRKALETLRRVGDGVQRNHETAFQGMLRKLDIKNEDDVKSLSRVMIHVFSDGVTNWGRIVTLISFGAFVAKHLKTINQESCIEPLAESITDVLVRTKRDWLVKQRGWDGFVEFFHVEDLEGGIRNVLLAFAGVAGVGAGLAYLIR

Row | Structure (SMILES) | Ki
1 | O=C(O)[C@]1(Nc2cccc(Br)c2)CC[C@@]2(CCCc3ccccc32)CC1 [Example 119, (1r,4s)-4-(3-bromoanilino)-3′,4′-dihydro-2′H-spiro[cyclohexane-1,1′-naphthalene]-4-carboxylic acid] | 836 nM
2 | CC[C@H](COc1cccnc1)C[C@H]1Cc2ccccc2[C@]12CC[C@@](Nc1cccc(Cl)c1)(C(=O)O)CC2 [Example 540, (1r,2′S,4S)-4-(3-chloroanilino)-2′-[(2S)-2-{[(pyridin-3-yl)oxy]methyl}butyl]-2′,3′-dihydrospiro[cyclohexane-1,1′-indene]-4-carboxylic acid] | 185 nM
3 | CN(CCc1ccncc1)C(=O)C1=Cc2ccccc2[C@]12CC[C@@](Nc1cccc(Cl)c1)(C(=O)O)CC2 [Example 403, (1s,4s)-4-(3-chloroanilino)-2′-{methyl[2-(pyridin-4-yl)ethyl]carbamoyl}spiro[cyclohexane-1,1′-indene]-4-carboxylic acid] | 8210 nM
4 | C[C@@H](COc1ccnc(CO)c1)C[C@H]1Cc2ccccc2[C@]12CC[C@@](Nc1cccc(Cl)c1)(C(=O)O)CC2 [Example 579, (1r,2′S,4S)-4-(3-chloroanilino)-2′-[(2R)-3-{[2-(hydroxymethyl)pyridin-4-yl]oxy}-2-methylpropyl]-2′,3′-dihydrospiro[cyclohexane-1,1′-indene]-4-carboxylic acid] | 216 nM
5 | O=C(O)[C@]1(Nc2cccc(Cl)c2)CC[C@]2(CC1)C(CCCOc1cccc3[nH]ccc13)=Cc1ccccc12 [Example 434, (1r,4r)-4-(3-chloroanilino)-2′-{3-[(1H-indol-4-yl)oxy]propyl}spiro[cyclohexane-1,1′-indene]-4-carboxylic acid] | 93.5 nM
6 | COc1ccc(C2Cc3ccccc3C23CCC(Nc2cccc(Cl)c2)(C(=O)O)CC3)cc1Cl (stereo not drawn) [Example 279, (1r,4r)-4-(3-chloroanilino)-2′-(3-chloro-4-methoxyphenyl)-2′,3′-dihydrospiro[cyclohexane-1,1′-indene]-4-carboxylic acid] | 383 nM
7 | COc1ccc(C2=Cc3ccccc3[C@]23CC[C@@](Nc2cccc(Cl)c2)(C(=O)O)CC3)c(Cl)c1 [Example 251, (1s,4s)-4-(3-chloroanilino)-2′-(2-chloro-4-methoxyphenyl)spiro[cyclohexane-1,1′-indene]-4-carboxylic acid] | 1690 nM
8 | O=C(O)[C@]1(Nc2cccc(Cl)c2)CC[C@]2(CC1)C(COCCc1cccc(Cl)c1)=Cc1ccccc12 [Example 417, (1s,4s)-4-(3-chloroanilino)-2′-{[2-(3-chlorophenyl)ethoxy]methyl}spiro[cyclohexane-1,1′-indene]-4-carboxylic acid] | 522 nM
9 | Cc1cc(C2Cc3ccccc3C23CCC(Nc2cccc(Br)c2)(C(=O)O)CC3)cs1 (stereo not drawn) [Example 232, 4-(3-bromoanilino)-2′-(5-methylthiophen-3-yl)-2′,3′-dihydrospiro[cyclohexane-1,1′-indene]-4-carboxylic acid] | 578 nM
10 | O=C(O)[C@]1(Nc2cccc(Cl)c2)CC[C@@]2(CC1)c1ccccc1CC2CCCOc1ccnc2c1CCC2F (stereo partly drawn) [Example 476, (1r,4r)-4-(3-chloroanilino)-2′-{3-[(7-fluoro-6,7-dihydro-5H-cyclopenta[b]pyridin-4-yl)oxy]propyl}-2′,3′-dihydrospiro[cyclohexane-1,1′-indene]-4-carboxylic acid] | 169 nM
11 | O=C(O)[C@]1(Nc2cccc(Br)c2)CC[C@@]2(CC1)C(CCCc1ccccc1)=Cc1ccccc12 [Example 149, (1s,4s)-4-(3-bromoanilino)-2′-(3-phenylpropyl)spiro[cyclohexane-1,1′-indene]-4-carboxylic acid] | 63300 nM
12 | O=C(O)[C@]1(Nc2cccc(Cl)c2)CC[C@@]2(CC1)c1ccccc1C[C@H]2c1cccc(Cc2ccccc2)c1 [Example 325, (1r,2′S,4S)-2′-(3-benzylphenyl)-4-(3-chloroanilino)-2′,3′-dihydrospiro[cyclohexane-1,1′-indene]-4-carboxylic acid] | 289 nM
13 | O=C(O)[C@]1(Nc2cccc(Cl)c2)CC[C@@]2(CC1)c1ccccc1CC2[C@H]1C[C@@H]1COc1ccnc2ccsc12 (single isomer, unassigned) [Example 104, (1r,4r)-4-(3-chloroanilino)-2′-[(1R*,2S*)-2-{[(thieno[3,2-b]pyridin-7-yl)oxy]methyl}cyclopropyl]-2′,3′-dihydrospiro[cyclohexane-1,1′-indene]-4-carboxylic acid] | 1360 nM
14 | COc1ccc(CCCC2Cc3ccccc3[C@]23CC[C@@](Nc2cccc(Cl)c2)(C(=O)O)CC3)cc1 (stereo partly drawn) [Example 161, (1r,4r)-4-(3-chloroanilino)-2′-[3-(4-methoxyphenyl)propyl]-2′,3′-dihydrospiro[cyclohexane-1,1′-indene]-4-carboxylic acid] | 447 nM
15 | Cc1ccc(C2=Cc3ccccc3[C@]23CC[C@@](Nc2cccc(Cl)c2)(C(=O)O)CC3)cc1 [Example 297, (1s,4s)-4-(3-chloroanilino)-2′-(4-methylphenyl)spiro[cyclohexane-1,1′-indene]-4-carboxylic acid] | 2370 nM
16 | COc1cccc(C)c1C1Cc2ccccc2[C@]12CC[C@@](Nc1cccc(Cl)c1)(C(=O)O)CC2 (mixture of isomers) [Example 286, (1r,4r)-4-(3-chloroanilino)-2′-(2-methoxy-6-methylphenyl)-2′,3′-dihydrospiro[cyclohexane-1,1′-indene]-4-carboxylic acid] | 5800 nM
17 | COCCOc1cccc(C2=Cc3ccccc3[C@]23CC[C@@](Nc2cccc(Cl)c2)(C(=O)O)CC3)c1 [Example 315, (1s,4s)-4-(3-chloroanilino)-2′-[3-(2-methoxyethoxy)phenyl]spiro[cyclohexane-1,1′-indene]-4-carboxylic acid] | 546 nM
18 | O=C(O)[C@]1(Nc2cccc(Br)c2)CC[C@@]2(CC1)C(=O)N(Cc1ccccc1)c1ccccc12 [Example 13, (1r,4r)-1′-benzyl-4-(3-bromoanilino)-2′-oxo-1′,2′-dihydrospiro[cyclohexane-1,3′-indole]-4-carboxylic acid] | 7080 nM
19 | O=C(O)[C@]1(Nc2cccc(Br)c2)CC[C@@]2(CC1)C(C#CCOc1ccccc1)=Cc1ccccc12 [Example 165, (1r,4r)-4-(3-bromoanilino)-2′-(3-phenoxyprop-1-yn-1-yl)spiro[cyclohexane-1,1′-indene]-4-carboxylic acid] | 90400 nM
20 | O=C(O)[C@]1(Nc2cccc(Cl)c2)CC[C@@]2(CC1)c1ccccc1CC2[C@H]1C[C@@H]1COc1cccnc1 (single isomer, unassigned) [Example 113, (1r,4r)-4-(3-chloroanilino)-2′-[(1R*,2S*)-2-{[(pyridin-3-yl)oxy]methyl}cyclopropyl]-2′,3′-dihydrospiro[cyclohexane-1,1′-indene]-4-carboxylic acid] | 22300 nM
21 | COc1cccc(C2Cc3ccccc3[C@]23CC[C@@](Nc2cccc(Cl)c2)(C(=O)O)CC3)c1C (single isomer, unassigned) [Example 321, (1r,4r)-4-(3-chloroanilino)-2′-(3-methoxy-2-methylphenyl)-2′,3′-dihydrospiro[cyclohexane-1,1′-indene]-4-carboxylic acid] | 2940 nM
22 | O=C(O)[C@]1(Nc2cccc(Cl)c2)CC[C@@]2(CC1)c1ccccc1C[C@@H]2c1cc2ccccc2o1 [Example 338, (1r,2′S,4S)-2′-(1-benzofuran-2-yl)-4-(3-chloroanilino)-2′,3′-dihydrospiro[cyclohexane-1,1′-indene]-4-carboxylic acid] | 5690 nM
23 | Cc1cc2nccc(OCCCC3Cc4ccccc4[C@]34CC[C@@](Nc3cccc(Cl)c3)(C(=O)O)CC4)c2s1 (stereo partly drawn) [Example 446, (1r,4r)-4-(3-chloroanilino)-2′-{3-[(2-methylthieno[3,2-b]pyridin-7-yl)oxy]propyl}-2′,3′-dihydrospiro[cyclohexane-1,1′-indene]-4-carboxylic acid] | 134 nM
24 | O=C(O)[C@]1(Nc2cccc(Br)c2)CC[C@@]2(CC1)c1ccccc1CC2CCc1cccc2[nH]ccc12 (stereo partly drawn) [Example 163, (1r,4r)-4-(3-bromoanilino)-2′-[2-(1H-indol-4-yl)ethyl]-2′,3′-dihydrospiro[cyclohexane-1,1′-indene]-4-carboxylic acid] | 679 nM
25 | Cn1ccc2cc(C3Cc4ccccc4[C@]34CC[C@@](Nc3cccc(Cl)c3)(C(=O)O)CC4)ccc21 (stereo partly drawn) [Example 274, (1r,4r)-4-(3-chloroanilino)-2′-(1-methyl-1H-indol-5-yl)-2′,3′-dihydrospiro[cyclohexane-1,1′-indene]-4-carboxylic acid] | 4690 nM
26 | O=C(O)[C@]1(Nc2cccc(Cl)c2)CC[C@]2(CC1)C(C#Cc1ccncc1)=Cc1ccccc12 [Example 173, (1s,4s)-4-(3-chloroanilino)-2′-[(pyridin-4-yl)ethynyl]spiro[cyclohexane-1,1′-indene]-4-carboxylic acid] | 455 nM
27 | O=C(O)[C@]1(Nc2cccc(Cl)c2)CC[C@@]2(CC1)c1ccccc1C[C@@H]2c1ccc2occc2c1 [Example 282, (1r,2′R,4R)-2′-(1-benzofuran-5-yl)-4-(3-chloroanilino)-2′,3′-dihydrospiro[cyclohexane-1,1′-indene]-4-carboxylic acid] | 5130 nM
28 | O=C(O)C1(Nc2cccc(Cl)c2)CCC2(CC1)c1ccccc1CC2c1ccc(OCc2cccnc2)cc1 (stereo not drawn) [Example 368, (1r,4r)-4-(3-chloroanilino)-2′-{4-[(pyridin-3-yl)methoxy]phenyl}-2′,3′-dihydrospiro[cyclohexane-1,1′-indene]-4-carboxylic acid] | 1320 nM
29 | COc1cncnc1OCCCC1Cc2ccccc2[C@]12CC[C@@](Nc1cccc(Cl)c1)(C(=O)O)CC2 (stereo partly drawn) [Example 438, (1r,4r)-4-(3-chloroanilino)-2′-{3-[(5-methoxypyrimidin-4-yl)oxy]propyl}-2′,3′-dihydrospiro[cyclohexane-1,1′-indene]-4-carboxylic acid] | 202 nM
30 | C[C@@H](COc1ccccc1)CC1Cc2ccccc2[C@]12CC[C@@](Nc1cccc(Cl)c1)(C(=O)O)CC2 (stereo partly drawn) [Example 567, (1r,4R)-4-(3-chloroanilino)-2′-[(2R)-2-methyl-3-phenoxypropyl]-2′,3′-dihydrospiro[cyclohexane-1,1′-indene]-4-carboxylic acid] | 155 nM

From patent publication US20240150293A1, “SPIROCYCLOHEXANE DERIVATIVES, PHARMACEUTICAL COMPOSITIONS CONTAINING THEM AND THEIR USES AS ANTI-APOPTOTIC INHIBITORS” (LES LABORATOIRES SERVIER, priority 2021, published 2024)
